{"source": "BindingDB's records for doi:10.3109/14756366.2011.566221", "about": "(Instituto Politécnico Nacional, 2011)", "assay_in_all_cases": "LDH Activity Assay", "settings_in_all_cases": "pH 7.4", "key": {"[1]": {"target": "L-lactate dehydrogenase A chain (Mus musculus, UniProt P06151)", "method": "(§1) Lactate dehydrogenase activity was determined by recording the absorbance change at 340 nm produced by the oxidation of NADH. Assays were performed at 37°C. The reagent mixture contained 0.115 mM NADH, 50 mM sodium phosphate buffer, pH 7.4, sodium pyruvate (0.31 mM for LDH-C4 and LDH-B4 and 1.25 mM for LDH-A4) and the enzyme preparation, diluted with phosphate buffer, pH 7.4, to provide a ΔE340 of 0.06-0.07 per minute when the activity was assayed in a 1-cm light path. For determination of dissociation constants, the isozymes, the inhibitors (oxamate or oxamate derivatives) and the coenzyme were incubated with the buffer used in the assay for 10 min at 37°C before adding the substrate."}, "[2]": {"target": "L-lactate dehydrogenase C chain (Mus musculus, UniProt P00342)", "sequence (P00342 whole entry)": "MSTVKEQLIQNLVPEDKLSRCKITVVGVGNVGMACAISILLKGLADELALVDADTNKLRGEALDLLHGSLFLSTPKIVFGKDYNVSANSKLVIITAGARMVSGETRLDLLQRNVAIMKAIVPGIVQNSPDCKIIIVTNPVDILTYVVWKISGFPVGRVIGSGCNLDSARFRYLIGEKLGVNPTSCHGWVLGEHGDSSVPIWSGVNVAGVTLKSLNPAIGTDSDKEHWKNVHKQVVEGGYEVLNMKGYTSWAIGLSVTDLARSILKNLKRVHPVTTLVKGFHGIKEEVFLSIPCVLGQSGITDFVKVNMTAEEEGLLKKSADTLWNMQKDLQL", "method": "as §1"}, "[3]": {"target": "L-lactate dehydrogenase B chain (Mus musculus, UniProt P16125)", "sequence (P16125 whole entry)": "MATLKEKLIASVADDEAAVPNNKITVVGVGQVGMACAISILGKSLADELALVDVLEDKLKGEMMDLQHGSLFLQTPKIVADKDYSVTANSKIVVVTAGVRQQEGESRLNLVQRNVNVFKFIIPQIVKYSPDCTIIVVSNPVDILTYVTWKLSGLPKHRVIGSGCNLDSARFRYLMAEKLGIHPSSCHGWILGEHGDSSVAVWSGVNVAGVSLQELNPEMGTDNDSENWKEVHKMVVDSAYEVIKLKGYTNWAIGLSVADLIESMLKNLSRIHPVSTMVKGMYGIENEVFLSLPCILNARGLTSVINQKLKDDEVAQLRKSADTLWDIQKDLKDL", "method": "as §1"}}, "data": [{"smiles": "CCCCNC(=O)C(=O)O", "note": "[N-Butyl oxamate]", "values": [{"measurement": "Ki", "setting": "[1]", "result": 9100, "unit": "µM"}, {"measurement": "Ki", "setting": "[2]", "result": 750, "unit": "µM"}, {"measurement": "Ki", "setting": "[3]", "result": 7000, "unit": "µM"}]}, {"smiles": "CCNC(=O)C(=O)O", "note": "[N-Ethyl oxamate]", "values": [{"measurement": "Ki", "setting": "[1]", "result": 140, "unit": "µM"}, {"measurement": "Ki", "setting": "[2]", "result": 2, "unit": "µM"}, {"measurement": "Ki", "setting": "[3]", "result": 35, "unit": "µM"}]}, {"smiles": "CC(C)CNC(=O)C(=O)O", "note": "[N-Isobutyl oxamate]", "values": [{"measurement": "Ki", "setting": "[1]", "result": 6000, "unit": "µM"}, {"measurement": "Ki", "setting": "[2]", "result": 2000, "unit": "µM"}, {"measurement": "Ki", "setting": "[3]", "result": 7000, "unit": "µM"}]}, {"smiles": "CCCNC(=O)C(=O)O", "note": "[N-Propyl oxamate]", "values": [{"measurement": "Ki", "setting": "[1]", "result": 1750, "unit": "µM"}, {"measurement": "Ki", "setting": "[2]", "result": 12, "unit": "µM"}, {"measurement": "Ki", "setting": "[3]", "result": 887, "unit": "µM"}]}, {"smiles": "CCC(C)NC(=O)C(=O)O", "note": "(stereo not drawn) [N-sec-Butyl oxamate]", "values": [{"measurement": "Ki", "setting": "[1]", "result": 12500, "unit": "µM"}, {"measurement": "Ki", "setting": "[2]", "result": 400, "unit": "µM"}, {"measurement": "Ki", "setting": "[3]", "result": 14500, "unit": "µM"}]}, {"smiles": "NC(=O)C(=O)O", "note": "[carbamoylformic acid]", "values": [{"measurement": "Ki", "setting": "[1]", "result": 80, "unit": "µM"}, {"measurement": "Ki", "setting": "[2]", "result": 30, "unit": "µM"}, {"measurement": "Ki", "setting": "[3]", "result": 60, "unit": "µM"}]}]}
